In ChEMBL document CHEMBL1201862, “PubChem BioAssay data set” (2004):
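96-well plates; 48 h exposure; 5 concentrations. Endpoints by linear interpolation between flanking doses. Not reached: highest tested concentration assigned. GI50: concentration for 50% inhibition of growth.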 The source made the active and inactive calls. Rule as the data show it: active = GI50 up to about 1.1 µM and inactive = higher.

Tests used:
Assay in all cases: inhibition of tumour cell growth, NCI panel, 48 h
NCI-H23 = system: NCI-H23
OVCAR-3 = system: OVCAR-3
U-251 = system: U-251
M14 = system: M14
Malme-3M = system: Malme-3M
MCF7 = system: MCF7
PC-3 = system: PC-3
HCT-116 = system: HCT-116
OVCAR-4 = system: OVCAR-4
SF-295 = system: SF-295
NCI-H522 = system: NCI-H522
UACC-62 = system: UACC-62
HT-29 = system: HT-29
SK-MEL-5 = system: SK-MEL-5
SF-539 = system: SF-539
MDA-MB-231 = system: MDA-MB-231
SF-268 = system: SF-268
SK-OV-3 = system: SK-OV-3
SNB-75 = system: SNB-75
T47D = system: T47D

Row | SMILES | GI50 (NCI-H23) | GI50 (OVCAR-3) | GI50 (U-251) | GI50 (M14) | GI50 (Malme-3M) | GI50 (MCF7) | GI50 (PC-3) | GI50 (HCT-116) | GI50 (OVCAR-4) | GI50 (SF-295) | GI50 (NCI-H522) | GI50 (UACC-62) | GI50 (HT-29) | GI50 (SK-MEL-5) | GI50 (SF-539) | GI50 (MDA-MB-231) | GI50 (SF-268) | GI50 (SK-OV-3) | GI50 (SNB-75) | GI50 (T47D)
1 | CCOC(=O)/C(C(=S)Nc1ccccc1)=C(/N)N1CCCC1 | > 100 µM (inactive) | > 100 µM (inactive) | 61.2 µM (inactive) | 72.6 µM (inactive) | > 100 µM (inactive) | 54.1 µM (inactive) | 38.9 µM (inactive) | 65.5 µM (inactive) | > 100 µM (inactive) | > 100 µM (inactive) | > 100 µM (inactive) | > 100 µM (inactive) | > 100 µM (inactive) | > 100 µM (inactive) | > 100 µM (inactive) | 29.7 µM (inactive) | > 100 µM (inactive) | – | – | –
2 | C[n+]1c(-c2ccc(/C=N/Nc3ccnc(N/N=C/c4ccc(-c5cn6ccsc6[n+]5C)cc4)n3)cc2)cn2ccsc21 | 22.9 µM (inactive) | > 100 µM (inactive) | 30.9 µM (inactive) | 8.81 µM (inactive) | 29.9 µM (inactive) | 48.4 µM (inactive) | 30.2 µM (inactive) | – | 51.9 µM (inactive) | – | 92.7 µM (inactive) | 25.1 µM (inactive) | 16.9 µM (inactive) | 19.3 µM (inactive) | 27 µM (inactive) | 32.7 µM (inactive) | – | > 100 µM (inactive) | 20 µM (inactive) | –
3 | COc1cc2cc3c4cc(OC)c(OC)cc4cc[n+]3cc2cc1OC | > 76.7 µM (inactive) | > 45.5 µM (inactive) | 9.46 µM (inactive) | – | > 100 µM (inactive) | > 31.6 µM (inactive) | – | > 100 µM (inactive) | > 100 µM (inactive) | > 100 µM (inactive) | 16.4 µM (inactive) | > 100 µM (inactive) | > 100 µM (inactive) | > 100 µM (inactive) | > 100 µM (inactive) | – | 0.435 µM (active) | > 82.2 µM (inactive) | > 89.3 µM (inactive) | –
4 | C=C/C(C)=C\CC1[C@](C)(O)CC[C@H]2C(C)(C)C(=O)CC[C@]12C (stereo partly drawn) | 40.6 µM (inactive) | 41.7 µM (inactive) | > 100 µM (inactive) | 39.4 µM (inactive) | > 100 µM (inactive) | 60.4 µM (inactive) | 34.6 µM (inactive) | 47.5 µM (inactive) | 54.3 µM (inactive) | 81.7 µM (inactive) | 62.7 µM (inactive) | > 100 µM (inactive) | 47.6 µM (inactive) | 44.4 µM (inactive) | > 100 µM (inactive) | > 100 µM (inactive) | > 100 µM (inactive) | – | > 100 µM (inactive) | –
5 | COc1ccc(/N=N/c2c(O)ccc3ccccc23)cc1 | 32.9 µM (inactive) | 28.6 µM (inactive) | 15.8 µM (inactive) | 26.1 µM (inactive) | 14.1 µM (inactive) | – | 28.2 µM (inactive) | > 100 µM (inactive) | 15.4 µM (inactive) | 12.9 µM (inactive) | 23 µM (inactive) | 15.6 µM (inactive) | 17 µM (inactive) | – | – | 24.5 µM (inactive) | 16.1 µM (inactive) | 8.2 µM (inactive) | 16.4 µM (inactive) | –
6 | CCC(C)C(NC(=O)c1cccc2c(=O)c3ccccc3[nH]c12)C(=O)O (stereo not drawn) | > 100 µM (inactive) | > 100 µM (inactive) | 73.5 µM (inactive) | > 100 µM (inactive) | > 100 µM (inactive) | > 100 µM (inactive) | > 100 µM (inactive) | > 100 µM (inactive) | 43.8 µM (inactive) | 83.4 µM (inactive) | > 100 µM (inactive) | > 100 µM (inactive) | > 100 µM (inactive) | > 100 µM (inactive) | – | > 100 µM (inactive) | 87.5 µM (inactive) | > 100 µM (inactive) | 78.7 µM (inactive) | –
7 | N#C/C(=C\NC(=S)Nc1ccc(S(=O)(=O)Nc2ccccn2)cc1)C(N)=O | 80.2 µM (inactive) | > 100 µM (inactive) | > 100 µM (inactive) | > 100 µM (inactive) | > 100 µM (inactive) | > 100 µM (inactive) | > 100 µM (inactive) | > 100 µM (inactive) | > 100 µM (inactive) | > 100 µM (inactive) | > 100 µM (inactive) | > 100 µM (inactive) | > 100 µM (inactive) | > 100 µM (inactive) | > 100 µM (inactive) | > 100 µM (inactive) | > 100 µM (inactive) | > 100 µM (inactive) | 61.8 µM (inactive) | –
8 | COC(=O)C1(C(=O)OC)CC(=O)c2c(OC(=O)c3cccc(OC)c3C#N)ccc(OC(=O)c3cccc(OC)c3C#N)c2C1 | > 100 µM (inactive) | > 100 µM (inactive) | > 100 µM (inactive) | > 100 µM (inactive) | > 100 µM (inactive) | > 100 µM (inactive) | > 100 µM (inactive) | > 100 µM (inactive) | > 100 µM (inactive) | > 100 µM (inactive) | > 100 µM (inactive) | > 100 µM (inactive) | > 100 µM (inactive) | > 100 µM (inactive) | > 100 µM (inactive) | > 100 µM (inactive) | > 100 µM (inactive) | > 100 µM (inactive) | > 100 µM (inactive) | –
9 | O=C(O)[C@@H]1OCCOCCO[C@@H](C(=O)O)[C@H](C(=O)O)OCCOCCO[C@H]1C(=O)O | > 100 µM (inactive) | > 100 µM (inactive) | > 42.1 µM (inactive) | > 100 µM (inactive) | > 100 µM (inactive) | – | – | > 67.8 µM (inactive) | > 100 µM (inactive) | > 100 µM (inactive) | > 100 µM (inactive) | > 100 µM (inactive) | > 100 µM (inactive) | > 100 µM (inactive) | > 100 µM (inactive) | – | > 100 µM (inactive) | > 100 µM (inactive) | 97.9 µM (inactive) | –
10 | C/C(=C\C(=N\NC(=N)N)c1ccccc1)c1ccccc1 | 0.354 µM (active) | 0.409 µM (active) | 0.652 µM (active) | 1.17 µM (inactive) | 1.16 µM (inactive) | 0.321 µM (active) | 0.313 µM (active) | 0.273 µM (active) | 0.321 µM (active) | 0.409 µM (active) | 0.452 µM (active) | 1.15 µM (inactive) | 0.354 µM (active) | 0.281 µM (active) | 0.432 µM (active) | – | 0.459 µM (active) | 4.3 µM (inactive) | 4.28 µM (inactive) | 0.12 µM (active)
11 | COc1cccc2[s+]snc12 | 57.7 µM (inactive) | > 100 µM (inactive) | > 10 µM (inactive) | > 100 µM (inactive) | > 100 µM (inactive) | – | – | 45.4 µM (inactive) | 43.9 µM (inactive) | 46.3 µM (inactive) | > 10 µM (inactive) | 25.1 µM (inactive) | 96.8 µM (inactive) | 24.3 µM (inactive) | 35.8 µM (inactive) | – | 34.1 µM (inactive) | > 100 µM (inactive) | 69.3 µM (inactive) | –
12 | Cc1ccc2c(=O)cc(-c3cccc(F)c3)[nH]c2n1 | 0.0501 µM (active) | 0.0201 µM (active) | 0.0389 µM (active) | 0.0361 µM (active) | 0.0379 µM (active) | 0.0334 µM (active) | 0.0327 µM (active) | 0.0406 µM (active) | 1.61 µM (inactive) | 0.0321 µM (active) | 0.0188 µM (active) | 0.0461 µM (active) | 0.0359 µM (active) | 0.0206 µM (active) | 0.0728 µM (active) | 0.0845 µM (active) | 0.0678 µM (active) | 0.0403 µM (active) | 0.0218 µM (active) | –
13 | Cc1cc(N(CCC#N)CCC#N)ccc1/C=C1N=C(/C=C\c2ccccc2)N(NC(=O)CC(=O)Nc2ccccc2Cl)C\1=O | > 100 µM (inactive) | > 100 µM (inactive) | > 100 µM (inactive) | > 100 µM (inactive) | > 100 µM (inactive) | – | – | > 100 µM (inactive) | > 100 µM (inactive) | > 100 µM (inactive) | > 100 µM (inactive) | > 100 µM (inactive) | > 100 µM (inactive) | > 100 µM (inactive) | > 100 µM (inactive) | – | > 100 µM (inactive) | > 100 µM (inactive) | > 100 µM (inactive) | –
14 | O=C1C(=O)N(c2ccc(Cl)cc2)C(=O)C(=O)C1c1nc2ccccc2s1 | > 100 µM (inactive) | > 100 µM (inactive) | > 100 µM (inactive) | > 100 µM (inactive) | > 100 µM (inactive) | – | – | > 100 µM (inactive) | > 100 µM (inactive) | > 100 µM (inactive) | > 100 µM (inactive) | > 100 µM (inactive) | > 100 µM (inactive) | > 100 µM (inactive) | 74.3 µM (inactive) | – | > 100 µM (inactive) | > 100 µM (inactive) | > 100 µM (inactive) | –
15 | Oc1ccc2ccccc2c1/N=N/c1ccc(F)cc1 | > 100 µM (inactive) | > 100 µM (inactive) | > 100 µM (inactive) | > 100 µM (inactive) | > 100 µM (inactive) | – | – | > 100 µM (inactive) | > 100 µM (inactive) | > 100 µM (inactive) | > 100 µM (inactive) | > 100 µM (inactive) | > 100 µM (inactive) | > 100 µM (inactive) | > 100 µM (inactive) | – | > 100 µM (inactive) | > 100 µM (inactive) | > 100 µM (inactive) | –
16 | CNS(=O)(=O)NNS(=O)(=O)c1ccc(OC)cc1 | > 100 µM (inactive) | > 100 µM (inactive) | > 100 µM (inactive) | > 100 µM (inactive) | > 100 µM (inactive) | – | – | > 100 µM (inactive) | > 100 µM (inactive) | > 100 µM (inactive) | > 100 µM (inactive) | > 100 µM (inactive) | > 100 µM (inactive) | > 100 µM (inactive) | > 100 µM (inactive) | – | > 100 µM (inactive) | > 100 µM (inactive) | > 100 µM (inactive) | –
